Measured values published in patent publication US9290481B2, “Monocyclic heteroaryl cycloalkyldiamine derivatives” (NOVARTIS AG, priority 2012, dated 2016).

Experiments:
[1] = system: OCl-Ly3 cells; experiment: B-cell lymphoma cell proliferation (WST-1 assay), OCl-Ly3; format: cell-based; settings: 4 days of incubation
Procedure: Cell proliferation was determined using the WST-1 assay (Roche, Mannheim, Germany), which measures the metabolic activity of the cells. […] The cell proliferation reagent WST-1 (10 μl/well) was added to the cells for 1-2 hours depending on the cell type which were cultured in 200 μl of medium. The absorbance was then measured with an enzyme-linked immunosorbent assay plate reader at a wavelength of 450 nm.

[2] = system: OCl-Ly10 cells; experiment: B-cell lymphoma cell proliferation (WST-1 assay), OCl-Ly10; format: cell-based; settings: 72 h, 3 days of incubation
Procedure: Cell proliferation was determined using the WST-1 assay (Roche, Mannheim, Germany), which measures the metabolic activity of the cells. Briefly, 5×10^5 TMD-8, OCl-Ly3, and OCl-Ly10 cells/well and 10×10^5 HBL-1 cells/well were seeded in triplicate in 96-well plates and were incubated with various concentrations of compounds to be tested for 3 days. The cell proliferation reagent WST-1 (10 μl/well) was added to the cells for 1-2 hours depending on the cell type which were cultured in 200 μl of medium. The absorbance was then measured with an enzyme-linked immunosorbent assay plate reader at a wavelength of 450 nm.

**Q.** What does the source list for NC(=O)c1nnc(N[C@@H]2CCCC[C@@H]2N)nc1Nc1cccc2cc[nH]c12 [Example 1.1, 3-((1R,2S)-2-Amino-cyclohexylamino)-5-(1H-indol-7-ylamino)-[1,2,4]triazine-6-carboxylic acid amide]?
**A.** GI50 [1]: No inhibition; GI50 [2]: 0.025 µM
